Source: patent US9700543B2, “GLP-1 receptor stabilizers and modulators” (Celgene International II SÀRL, priority 2011, dated 2017)

How the values were obtained:
[1] = Determination of absolute oral bioavailability in rats; type: in vivo; details: rat, plasma, fasted female Sprague-Dawley rats, intravenous 1 mg/kg
Procedure: Determination of Absolute Oral Bioavailability in Rats
All pharmacokinetic studies were conducted in fasted female Sprague-Dawely rats (Simonsen Laboratories or Harlan Laboratories). Rats were housed in an ALAAC accredited facility and the research was approved by the facilities Institutional Animal Care and Use Committee (IACUC). The animals were acclimated to the laboratory for at least 48 h prior to initiation of experiments.
Compounds were formulated in 20% hydroxy beta cyclodextrin or 20% captisol and 80%-25 mM NaPO4 Buffer (pH 8) (intravenous infusion), or 5% DMSO/5% Tween20 and 90% water (oral gavage or intraperitoneal injection). The concentration of the dosing solutions was verified by HPLC-UV. For intravenous dosing, compounds were administered into the tail vein to manually restrained animals (n=3 rats/compound). The intravenous dose was 1 mg/kg. Oral dosing was by gavage using a standard stainless steel gavage needle (n=2-4 rats/compound). The oral solution dose was 5 mg/kg. For compounds 1 and 3, the oral solution dose was 30 mg/kg. For both routes of administration, blood was collected into BD Microtainer tubes with Dipotassium EDTA as the anticoagulantant eight time-points after dosing with the final sample drawn 24 h post dose Plasma was separated by centrifugation and transferred to a polypropylene 96-well plate and kept at 4° C. until analysis.
Proteins were precipitated by adding 150 μL acetonitrile to 50 μL of plasma. Plates were mixed for 1 min on a plate shaker to facilitate protein precipitation and then centrifuged at 3,000 rpm for 10 min to pellet protein. The supernatant was transferred to a clean plate and centrifuged at 3,000 rpm for 10 min to pellet any remaining solid material prior to LC/MS/MS analysis. Calibration curve standards were prepared by spiking 54 compound stock in DMSO into rat plasma from untreated animals. An eight point standard curve spanning a range of 0.14 nM to 300 nM was included with each bio-analytical run. The standards were processed identically to the rat pharmacokinetic samples.
Concentrations in the rat pharmacokinetic samples were determined using a standardized HPLC-LC/MS/MS method relative to the eight point standard curve. The system consisted of a Leap CTC Pal injector, Agilent 1200 HPLC with binary pump coupled with an Applied Biosystems 4000 QTrap. Compounds were chromatographed on a Phenomenex Luna C8(2) 20×2 mm 2 um Mercury Cartridge with Security Guard. A gradient method was used with mobile phase A consisting of 0.1% formic acid in water and mobile phase B consisting of 0.1% formic acid in acetonitrile at flow rates varying from 0.7 to 0.8 mL/min. Ions were generated in positive ionization mode using an electrospray ionization (ESI) interface. Multiple reaction monitoring (MRM) methods were developed specific to each compound. The heated nebulizer was set at 500° C. with a nebulizer current of 5.1 μA. Collision energies used to generate daughter ions ranged between 29 and 80 V. Peak area obtained from MRM of the mass transitions specific for each compound were used for quantification. The limit of quantification of the method was typically 1.2 nM. Data were collected and analyzed using Analyst software version 1.5.1. Blood concentration versus time data were analyzed using non-compartmental methods (WinNonlin Phoenix version 6.2; model 200 for oral or intraperitoneal dosing and model 202 for intravenous infusion). Absolute oral bioavailability (%) was calculated using the following expression: (Oral AUC×IV Dose)/(IV AUC×Oral Dose)×100.

[2] = target: T1, GLP-1R (Homo sapiens, UniProt P43220); assay: EC20 GLP-1(9-36) PAM cAMP assay: dose response of compound in the presence of fixed concentration of GLP-1(9-36); type: cell-based; details: compound dose response with fixed GLP-1(9-36), GLP-1R CRE-bla CHO-K1 cells; for EC20 GLP-1 (9-36) PAM Activity max cAMP: Emax as total cAMP; for EC50: cAMP
T1 construct: host or cells: CRE-bla CHO-K1
Procedure: EC20GLP-1(9-36) PAM cAMP Assay: Dose Response of Compound in the Presence of Fixed Concentration of GLP-1 (9-36)
GLP-1R CRE-bla CHO-K1 cells were seeded into 384-well white flat bottom plates at 10,000 cells/well/20 μL growth medium (DMEM-High glucose, 10% dialyzed FBS, 0.1 mM NEAA, 25 mM Hepes, 100 U/mL penicillin/100 μg/mL streptomycin, 5 μg/mL Blasticidin, 600 μg/mL Hygromycin) and incubated for 18 h at 37° C. in 5% CO2. Growth medium was replaced with 12 μL assay buffer (Hanks Balanced Salt solution, 10 mM Hepes, 0.1% BSA, pH7.4). A 5× compound dose response curve (12-point) was generated in assay buffer containing 1.5 mM IBMX, 12.5% DMSO. GLP-1(9-36) was diluted to 4.2 μM in assay buffer containing 1.5 mM IBMX and 12.5% DMSO. The 5× compound dose response was added (3 μL), followed by 0.5 μL of GLP-1(9-36) and cells were incubated for 30 min at 37° C. Direct detection of cAMP was carried out using DiscoveRx HitHunter cAMP kit according to manufacturer's instructions and luminescence was read using a SpectraMax M5 plate reader. Luminescence was converted to total cAMP using a cAMP standard curve and data was analyzed by non-linear regression to determine the EC50 and Emax.

[3] = oral solution 30 mg/kg (compounds 1 and 3)

T1 sequence (P43220 24-463): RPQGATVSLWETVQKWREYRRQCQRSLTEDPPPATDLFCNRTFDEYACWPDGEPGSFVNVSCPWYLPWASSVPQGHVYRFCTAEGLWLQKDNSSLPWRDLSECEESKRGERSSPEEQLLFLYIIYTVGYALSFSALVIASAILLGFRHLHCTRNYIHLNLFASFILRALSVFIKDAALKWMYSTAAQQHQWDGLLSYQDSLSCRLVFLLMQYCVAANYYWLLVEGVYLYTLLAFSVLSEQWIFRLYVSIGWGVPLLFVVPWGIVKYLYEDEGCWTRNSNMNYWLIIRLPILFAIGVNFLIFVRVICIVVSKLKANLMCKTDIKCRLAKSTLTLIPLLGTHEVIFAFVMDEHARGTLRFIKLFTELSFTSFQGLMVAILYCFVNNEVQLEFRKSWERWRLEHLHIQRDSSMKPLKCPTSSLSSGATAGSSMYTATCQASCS
T1 sequence (P01275 100-127 partner limits assumed): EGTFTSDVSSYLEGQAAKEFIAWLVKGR

Row | bioavailability [1, 3] [%] | EC20 GLP-1 (9-36) PAM Activity max cAMP [2] [nM] | EC50 [2] [nM] | bioavailability ([1]; oral solution 5 mg/kg) [%] | SMILES
1 | < 1 | 240 | 3600 | – | CCCCCCCOc1ccc(C(=O)Oc2ccc(CN(CC(=O)O)C(=O)c3ccc(NC(=O)Cc4ccc(OC)cc4)cc3)cc2)cc1 [Compound 1, 2-(N-(4-((4-(heptyloxy)benzoyl)oxy)benzyl)-4-(2-(4-methoxyphenyl)acetamido)benzamido)-acetic acid]
2 | – | 206 | 300 | 8 | COc1ccc(OC)c(CC(=O)Nc2ccc(C(=O)N(CC(=O)O)Cc3ccc(-c4noc(-c5ccc(-c6ccc(C)cc6)cc5)n4)cc3)cc2)c1 [Compound 405, 2-(4-(2-(2,5-dimethoxyphenyl)acetamido)-N-(4-(5-(4′-methyl-[1,1′-biphenyl]-4-yl)-1,2,4-oxadiazol-3-yl)benzyl)benzamido)acetic acid]
3 | – | 281 | 300 | 8 | COc1ccc(CC(=O)Nc2ccc(C(=O)N(CC(=O)O)Cc3ccc(-c4nc(-c5ccc(-c6ccc(C)cc6)cc5)no4)cc3)cc2)c(C(F)(F)F)c1 [Compound 362, 2-(4-(2-(4-methoxy-2-(trifluoromethyl)phenyl)acetamido)-N-(4-(3-(4′-methyl-[1,1′-biphenyl]-4-yl)-1,2,4-oxadiazol-5-yl)benzyl)benzamido)acetic acid]
4 | < 1 | 284 | 1300 | – | CCCCCCCOc1ccc(C(=O)Oc2ccc(CN(CC(=O)O)C(=O)c3ccc(NC(=O)Cc4ccc(OC)cc4C(F)(F)F)cc3)cc2)cc1 [Compound 3, 2-(N-(4-((4-(heptyloxy)benzoyl)oxy)benzyl)-4-(2-(4-methoxy-2-(trifluoromethyl)phenyl)-acetamido)benzamido)acetic acid]
5 | – | 167 | 500 | 5 | COc1ccc(F)c(CC(=O)Nc2ccc(C(=O)N(CC(=O)O)Cc3ccc(-c4noc(-c5ccc(-c6ccc(C)cc6)cc5)n4)cc3)cc2)c1F [Compound 441, 2-(4-(2-(2,6-difluoro-3-methoxyphenyl)acetamido)-N-(4-(5-(4′-methyl-[1,1′-biphenyl]-4-yl)-1,2,4-oxadiazol-3-yl)benzyl)benzamido)acetic acid]
6 | – | 310 | 500 | 7 | COc1ccc(CC(=O)Nc2ccc(C(=O)N(CC(=O)O)Cc3ccc(-c4noc(-c5ccc(-c6ccc(C)cc6)cc5)n4)cc3)c(F)c2)c(C(F)(F)F)c1 [Compound 496, 2-(2-fluoro-4-(2-(4-methoxy-2-(trifluoromethyl)phenyl)acetamido)-N-(4-(5-(4′-methyl-[1,1′-biphenyl]-4-yl)-1,2,4-oxadiazol-3-yl)benzyl)benzamido)acetic acid]
7 | – | 290 | 500 | 2 | COc1ccc(CC(=O)Nc2ccc(C(=O)N(CC(=O)O)Cc3ccc(-c4nc(-c5ccc(-c6ccc(C)cc6)cc5)co4)cc3)cc2)c(C(F)(F)F)c1 [Compound 360, 2-(4-(2-(4-methoxy-2-(trifluoromethyl)phenyl)acetamido)-N-(4-(4-(4′-methyl-[1,1′-biphenyl]-4-yl)oxazol-2-yl)benzyl)benzamido)acetic acid]
8 | – | 302 | 200 | 14.8 | COc1cccc(OC)c1CC(=O)Nc1ccc(C(=O)N(CC(=O)O)Cc2ccc(-c3nc(-c4ccc(-c5ccc(C)cc5)cc4)no3)cc2)cc1 [Compound 458, 2-(4-(2-(2,6-dimethoxyphenyl)acetamido)-N-(4-(3-(4′-methyl-[1,1′-biphenyl]-4-yl)-1,2,4-oxadiazol-5-yl)benzyl)benzamido)acetic acid]
9 | – | 266 | 2900 | 2 | COc1ccc(CC(=O)Nc2ccc(C(=O)N(CC(=O)O)Cc3ccc(-c4noc(-c5ccc(C)cc5)n4)cc3)cc2)c(C(F)(F)F)c1 [Compound 355, 2-(4-(2-(4-methoxy-2-(trifluoromethyl)phenyl)acetamido)-N-(4-(5-(p-tolyl)-1,2,4-oxadiazol-3-yl)benzyl)benzamido)acetic acid]
10 | – | 266 | 200 | 19.4 | COc1ccc(OC)c(CC(=O)Nc2ccc(C(=O)N(CC(=O)O)Cc3ccc(-c4nc(-c5ccc(-c6ccc(C)cc6)cc5)no4)cc3)cc2)c1 [Compound 457, 2-(4-(2-(2,5-dimethoxyphenyl)acetamido)-N-(4-(3-(4′-methyl-[1,1′-biphenyl]-4-yl)-1,2,4-oxadiazol-5-yl)benzyl)benzamido)acetic acid]
11 | – | 297 | 300 | 2 | COc1ccc(CC(=O)Nc2ccc(C(=O)N(CC(=O)O)Cc3ccc(-c4noc(-c5ccc(-c6ccc(C)cc6)cc5)n4)cc3)cc2)c(C(F)(F)F)c1 [Compound 354, 2-(4-(2-(4-methoxy-2-(trifluoromethyl)phenyl)acetamido)-N-(4-(5-(4′-methyl-[1,1′-biphenyl]-4-yl)-1,2,4-oxadiazol-3-yl)benzyl)benzamido)acetic acid]
12 | – | 237 | 3200 | 3 | COc1ccc(CC(=O)Nc2ccc(C(=O)N(CC(=O)O)Cc3ccc(-c4nc(-c5ccc(C)cc5)no4)cc3)cc2)c(C(F)(F)F)c1 [Compound 363, 2-(4-(2-(4-methoxy-2-(trifluoromethyl)phenyl)acetamido)-N-(4-(3-(p-tolyl)-1,2,4-oxadiazol-5-yl)benzyl)benzamido)acetic acid]
13 | – | 278 | 400 | 10 | COc1ccc(CC(=O)Nc2ccc(C(=O)N(CC(=O)O)Cc3ccc(-c4coc(-c5ccc(-c6ccc(C)cc6)cc5)n4)cc3)cc2)c(C(F)(F)F)c1 [Compound 364, 2-(4-(2-(4-methoxy-2-(trifluoromethyl)phenyl)acetamido)-N-(4-(2-(4′-methyl-[1,1′-biphenyl]-4-yl)oxazol-4-yl)benzyl)benzamido)acetic acid]
14 | – | 258 | 200 | 10 | COc1cccc(OC)c1CC(=O)Nc1ccc(C(=O)N(CC(=O)O)Cc2ccc(-c3noc(-c4ccc(-c5ccc(C)cc5)cc4)n3)cc2)cc1 [Compound 411, 2-(4-(2-(2,6-dimethoxyphenyl)acetamido)-N-(4-(5-(4′-methyl-[1,1′-biphenyl]-4-yl)-1,2,4-oxadiazol-3-yl)benzyl)benzamido)acetic acid]
